Some test systems named below: UACC-257; HT-29; 786-0; SF-295; A549; SR; SF-539; SF-268; NCI-H522; OVCAR-4; ACHN; SK-OV-3; K562; HOP-92; HCT-15; HCT-116; PC-3; DU-145; NCI/ADR-RES.
Common to all, as to test: NCI tumour cell line growth inhibition, 48 h

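Cultured in 96-well plates, cells were exposed to test compound for 48 hours across five concentrations. GI50: concentration for 50% inhibition of growth.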 The source made the active and inactive calls. Rule as the data show it: active = GI50 up to about 1.1 µM and inactive = higher.

As to `Cc1ccc(SSc2ccc(C)cc2C(=O)O)c(C(=O)O)c1`, the GI50 in the assay with UACC-257, with HT-29, in the assay on 786-0, in the assay on SF-295, with A549 and in the assay with SR was > 100 µM (inactive) in each case. In addition, the GI50 with SF-539, in the assay with SF-268, in the assay with NCI-H522, with OVCAR-4, in the assay on ACHN and in the assay on SK-OV-3 was > 100 µM (inactive) in each case. Further, the GI50 in the assay with K562 and with HOP-92 was > 100 µM (inactive) throughout.

Turning to `CCC(CO)Nc1nc2c(c(=O)n(C)c(=O)n2C)n1CCO` (stereo not drawn), the GI50 in the assay on UACC-257, in the assay on HT-29, in the assay with 786-0, in the assay on SF-295, with A549 and in the assay with SR was > 100 µM (inactive) in each case. Also, the GI50 was > 100 µM (inactive) in the assay on SF-539; > 100 µM (inactive) in the assay on SF-268; > 100 µM (inactive) in the assay on ACHN; > 100 µM (inactive) in the assay on SK-OV-3; > 100 µM (inactive) in the assay with K562; greater than 100 µM with HCT-15. Further, the GI50 in the assay on HCT-116 and in the assay on HOP-92 was > 100 µM (inactive) throughout.

As for `O=C1COc2cc3c(cc2N1)SCCC(=O)N3`, the GI50 with UACC-257, in the assay on HT-29, with 786-0, in the assay on SF-295, in the assay on A549 and with SR was > 100 µM (inactive) in each case. The GI50 in the assay with SF-539, in the assay on SF-268, with NCI-H522, in the assay with OVCAR-4, in the assay on SK-OV-3 and in the assay with K562 was > 100 µM (inactive) throughout. In addition, the GI50 with HCT-116 and with HOP-92 was > 100 µM (inactive) throughout.

For the compound `O=C1NC2OC(CO)C(O)C(O)C2O1` (stereo not drawn), the GI50 in the assay with UACC-257, in the assay on HT-29, in the assay with 786-0, in the assay on SF-295, with A549 and with SR was > 100 µM (inactive) throughout. Moreover, the GI50 in the assay with SF-539, in the assay on SF-268, in the assay on NCI-H522, in the assay on OVCAR-4, with ACHN and in the assay with SK-OV-3 was > 100 µM (inactive) each time. The GI50 with K562 is > 100 µM (inactive); in the assay on HCT-15 it was greater than 100 µM; in the assay on HCT-116 it was > 100 µM (inactive); in the assay with HOP-92, > 100 µM (inactive).

Turning to `COc1cc2c(c3c1C=CCO3)C(=O)c1ccccc1C2=O`, the GI50 in the assay on UACC-257 is 25.3 µM (inactive); in the assay with HT-29, 70.1 µM (inactive); in the assay with 786-0, 57.7 µM (inactive); in the assay on SF-295, > 100 µM (inactive); in the assay with A549 it was 38.5 µM (inactive); with SR, 28 µM (inactive). Also, the GI50 with SF-539 is 36.1 µM (inactive); in the assay with SF-268, 47.6 µM (inactive); in the assay with NCI-H522 it was 29.7 µM (inactive); with ACHN, 34.2 µM (inactive); in the assay with SK-OV-3, > 100 µM (inactive); with K562, 32.3 µM (inactive). The GI50 in the assay on HCT-15 is 29.6 µM; in the assay with HCT-116, 33.3 µM (inactive); in the assay on HOP-92, > 100 µM (inactive).

`CCN(CC)CC(C)C(=O)/C=C/c1ccc(C)cc1` (stereo not drawn): the GI50 with UACC-257 was 2.23 µM (inactive); with HT-29, 1.85 µM (inactive); with 786-0 it was 1.88 µM (inactive); in the assay with SF-295, 15 µM (inactive); in the assay on A549 it was 3.77 µM (inactive); with SR, 2.48 µM (inactive). Also, the GI50 was 2.05 µM (inactive) in the assay on SF-539; 2.1 µM (inactive) with SF-268; 2.23 µM (inactive) in the assay on OVCAR-4; 2.06 µM (inactive) in the assay with ACHN; 17 µM (inactive) with SK-OV-3; 3.24 µM (inactive) in the assay on K562. Also, the figures for the GI50 in the assay with HCT-15, with HCT-116 and in the assay on HOP-92 were 2.53 µM, 1.73 µM (inactive) and 2.32 µM (inactive), respectively.

Turning to `CC(C#N)c1cn(S(=O)(=O)c2ccccc2)c2ccccc12` (stereo not drawn), the GI50 in the assay on UACC-257 is 31.3 µM (inactive); with HT-29 it was > 100 µM (inactive); in the assay with 786-0, > 100 µM (inactive); with SF-295, 34.4 µM (inactive); in the assay with A549, 36.5 µM (inactive); in the assay on SR, 30.8 µM (inactive). Further, the GI50 in the assay with SF-539 was 68.1 µM (inactive); with SF-268 it was 82.8 µM (inactive); in the assay on NCI-H522, 27.7 µM (inactive); with OVCAR-4, 34 µM (inactive); with ACHN, 33.3 µM (inactive); in the assay on K562, 39.8 µM (inactive). For the same compound, the GI50 in the assay with HCT-15 is 53.6 µM; in the assay on HCT-116, 40.1 µM (inactive); in the assay with HOP-92, 12.4 µM (inactive).

Regarding `CCSCN(C)c1nc(N(C)C)nc(N(C)C)n1`, the GI50 in the assay on UACC-257 is 43 µM (inactive); with HT-29 it was 36.5 µM (inactive); in the assay on 786-0 it was 36.7 µM (inactive); with SF-295, 92.3 µM (inactive); in the assay with A549, 55.2 µM (inactive); in the assay on SR, 30 µM (inactive). The GI50 in the assay with SF-539 was 36.1 µM (inactive); in the assay with SF-268, > 100 µM (inactive); in the assay with NCI-H522, 35 µM (inactive); in the assay on OVCAR-4, 72.3 µM (inactive); in the assay with ACHN, > 100 µM (inactive); with SK-OV-3, > 100 µM (inactive). Besides, the GI50 in the assay on K562 is 46.8 µM (inactive); in the assay with HCT-15 it was 42.5 µM; in the assay with HCT-116, 54.7 µM (inactive); in the assay with HOP-92 it was 49.2 µM (inactive).

Take `CC(CC(C)(C)[N+](C)(C)C)[N+](C)(C)C` (stereo not drawn): the GI50 with UACC-257, in the assay on HT-29, in the assay with 786-0, with SF-295, in the assay with A549 and in the assay with SR was > 100 µM (inactive) each time. For the same compound, the GI50 in the assay on SF-539, in the assay with PC-3, in the assay with DU-145, in the assay on SF-268, with NCI-H522 and in the assay on OVCAR-4 was > 100 µM (inactive) each time. Also, the GI50 with ACHN was > 100 µM (inactive); in the assay on SK-OV-3, > 100 µM (inactive); with K562, > 100 µM (inactive); in the assay on HCT-15, greater than 100 µM; with NCI/ADR-RES, > 100 µM (inactive); in the assay with HCT-116, > 100 µM (inactive). Further, the GI50 in the assay on HOP-92 is > 100 µM (inactive).
